Laboratory results as given in US20150105252A1, “SUBSTITUTED PYRAZOLES AS HERBICIDES” (E I DU PONT DE NEMOURS AND COMPANY, priority 2013, published 2015).

Experiments:
barnyardgrass [1] = test: Test A preemergence; format: in vivo, Echinochloa crus-galli; conditions: preemergence
Method in brief: (§1)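 Visual injury rating, 0–100 (0 no effect, 100 complete control), vs untreated controls ~10 days after treatment in greenhouse. Pre: directed soil spray on seeded loam/sand. Post: 2–10 cm plants, 1–2 leaf stage. Formulation: non-phytotoxic solvent mix + surfactant.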

kochia [2] = test: Test A preemergence; format: in vivo, Kochia scoparia
Description: (§2) Seeds of plant species selected from barnyardgrass (Echinochloa crus-galli), kochia (Kochia scoparia), common ragweed (Ambrosia elation), Italian ryegrass (Lolium multiflorum), crabgrass, large (large crabgrass, Digitaria sanguinalis), foxtail, giant (giant foxtail, Setaria faberii), morningglory (Ipomoea spp.), pigweed (redroot pigweed, Amaranthus retroflexus), velvetleaf (Abutilon theophrasti), wheat (Triticum aestivum), and corn (Zea mays) were planted into a blend of loam soil and sand and treated preemergence with a directed soil spray using test chemicals formulated in a non-phytotoxic solvent mixture which included a surfactant.
(§3) At the same time, plants selected from these crop and weed species and also blackgrass (Alopecurus myosuroides), and galium (catchweed bedstraw, Galium aparine) were planted in pots containing the same blend of loam soil and sand and treated with postemergence applications of test chemicals formulated in the same manner. Plants ranged in height from 2 to 10 cm and were in the one- to two-leaf stage for the postemergence treatment. Treated plants and untreated controls were maintained in a greenhouse for approximately 10 days, after which time all treated plants were compared to untreated controls and visually evaluated for injury. Plant response ratings, summarized in Table A, are based on a 0 to 100 scale where 0 is no effect and 100 is complete control. A dash (-) response means no test result.

common ragweed [3] = test: Test A preemergence; format: in vivo, Ambrosia elation
Description: as §2, §3

Italian ryegrass [4] = test: Test A preemergence; format: in vivo, Lolium multiflorum
Description: as §2, §3

foxtail, giant [5] = test: Test A preemergence; format: in vivo, Setaria faberii; conditions: preemergence
Method in brief: as §1

pigweed [6] = test: Test A preemergence; format: in vivo, Amaranthus retroflexus; conditions: preemergence
Method in brief: as §1

barnyardgrass [7] = test: Test A postemergence; format: in vivo, Echinochloa crus-galli
Method in brief: as §1

kochia [8] = test: Test A postemergence; format: in vivo, Kochia scoparia
Description: as §2, §3

common ragweed [9] = test: Test A postemergence; format: in vivo, Ambrosia elation
Description: as §2, §3

Italian ryegrass [10] = test: Test A postemergence; format: in vivo, Lolium multiflorum
Description: as §2, §3

foxtail, giant [11] = test: Test A postemergence; format: in vivo, Setaria faberii
Method in brief: as §1

pigweed [12] = test: Test A postemergence; format: in vivo, Amaranthus retroflexus
Method in brief: as §1

wheat = test: Test A postemergence; format: in vivo, Triticum aestivum
Method in brief: as §1

corn = test: Test A postemergence; format: in vivo, Zea mays
Method in brief: as §1

blackgrass = test: Test A postemergence; format: in vivo, Alopecurus myosuroides
Description: as §2, §3

galium = test: Test A postemergence; format: in vivo, Galium aparine
Description: as §2, §3

rice = test: Test B flood; format: in vivo, Oryza sativa; conditions: 250 g ai/ha, visual rating on 0 to 100 scale (0 no effect, 100 complete control), 13 to 15 days
Method in brief: (§4)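 Paddy-water application: seedlings at 2-leaf stage, flood depth 3 cm maintained for the test duration. Evaluation after 13–15 days in the greenhouse by eye relative to controls; 0–100 scale.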

sedge, umbrella = test: Test B flood; format: in vivo, Cyperus difformis; conditions: 250 g ai/ha, visual rating on 0 to 100 scale (0 no effect, 100 complete control), 13 to 15 days
Method in brief: as §4

ducksalad = test: Test B flood; format: in vivo, Heteranthera limosa; conditions: 250 g ai/ha, visual rating on 0 to 100 scale (0 no effect, 100 complete control), 13 to 15 days
Method in brief: as §4

barnyardgrass [13] = test: Test B flood; format: in vivo, Echinochloa crus-galli; conditions: 250 g ai/ha, visual rating on 0 to 100 scale (0 no effect, 100 complete control), 13 to 15 days
Method in brief: as §4

[14] = 125 g ai/ha, visual injury, 0 to 100 scale, approx. 10 days
[15] = 500 g ai/ha, visual injury after approx. 10 days, 0 to 100 scale (0 no effect, 100 complete control)
[16] = Postemergence, 500 g ai/ha, 0 to 100 scale (0 no effect, 100 complete control)
[17] = postemergence, 125 g ai/ha, about 10 days, visual rating on 0 to 100 scale (0 no effect, 100 complete control)

## CCCNC(=O)c1cc(CC)n(Cc2cc(C(F)(F)F)no2)n1 [Compound 122]
Barnyardgrass [1]; [14]
  Barnyardgrass plant response rating: 0
Barnyardgrass [1]; [15]
  Barnyardgrass plant response rating: 100
Kochia [2]; [14]
  Kochia plant response rating: 10
Kochia [2]; [15]
  Kochia plant response rating: 90
Common ragweed [3]; [14]
  Common Ragweed plant response rating: 10
Italian ryegrass [4]; [14]
  Italian Ryegrass plant response rating: 0
Italian ryegrass [4]; [15]
  Italian Ryegrass plant response rating: 30
foxtail, giant [5]; [14]
  Foxtail, Giant plant response rating: 20
foxtail, giant [5]; [15]
  Foxtail, Giant plant response rating: 100
Pigweed [6]; [14]
  Pigweed plant response rating: 60
Pigweed [6]; [15]
  Pigweed plant response rating: 100
Barnyardgrass [7]; [16]
  Barnyardgrass plant response rating: 70
Barnyardgrass [7]; [17]
  Barnyardgrass plant response rating: 0
Kochia [8]; [16]
  Kochia plant response rating: 90
Kochia [8]; [17]
  Kochia plant response rating: 50
Common ragweed [9]; [16]
  Common Ragweed plant response rating: 30
Common ragweed [9]; [17]
  Common Ragweed plant response rating: 10
Italian ryegrass [10]; [16]
  Italian Ryegrass plant response rating: 50
Italian ryegrass [10]; [17]
  Italian Ryegrass plant response rating: 10
foxtail, giant [11]; [16]
  Foxtail, Giant plant response rating: 90
foxtail, giant [11]; [17]
  Foxtail, Giant plant response rating: 0
Pigweed [12]; [16]
  Pigweed plant response rating: 40
Pigweed [12]; [17]
  Pigweed plant response rating: 30
wheat; [16]
  Wheat plant response rating: 10
wheat; [17]
  Wheat plant response rating: 0
corn; [16]
  Corn plant response rating: 60
corn; [17]
  Corn plant response rating: 20
blackgrass; [16]
  Blackgrass plant response rating: 80
blackgrass; [17]
  Blackgrass plant response rating: 10
galium; [16]
  Galium plant response rating: 70
galium; [17]
  Galium plant response rating: 10
rice
  Plant response rating, Rice: 30
sedge, umbrella
  Plant response rating, Sedge, Umbrella: 50
ducksalad
  Plant response rating, Ducksalad: 50
Barnyardgrass [13]
  Plant response rating, Barnyardgrass: 20

## CCCNC(=O)c1cc(CC)n(Cc2cc(OC(F)F)nn2C)n1 [Compound 134]
Barnyardgrass [1]; [14]
  Barnyardgrass plant response rating: 0
Barnyardgrass [1]; [15]
  Barnyardgrass plant response rating: 90
Kochia [2]; [14]
  Kochia plant response rating: 80
Kochia [2]; [15]
  Kochia plant response rating: 100
Common ragweed [3]; [14]
  Common Ragweed plant response rating: 10
Common ragweed [3]; [15]
  Common Ragweed plant response rating: 80
Italian ryegrass [4]; [14]
  Italian Ryegrass plant response rating: 0
Italian ryegrass [4]; [15]
  Italian Ryegrass plant response rating: 10
foxtail, giant [5]; [14]
  Foxtail, Giant plant response rating: 20
foxtail, giant [5]; [15]
  Foxtail, Giant plant response rating: 100
Pigweed [6]; [14]
  Pigweed plant response rating: 20
Pigweed [6]; [15]
  Pigweed plant response rating: 100
Barnyardgrass [7]; [16]
  Barnyardgrass plant response rating: 30
Barnyardgrass [7]; [17]
  Barnyardgrass plant response rating: 10
Kochia [8]; [16]
  Kochia plant response rating: 90
Kochia [8]; [17]
  Kochia plant response rating: 60
Common ragweed [9]; [16]
  Common Ragweed plant response rating: 30
Common ragweed [9]; [17]
  Common Ragweed plant response rating: 20
Italian ryegrass [10]; [16]
  Italian Ryegrass plant response rating: 10
Italian ryegrass [10]; [17]
  Italian Ryegrass plant response rating: 0
foxtail, giant [11]; [16]
  Foxtail, Giant plant response rating: 70
foxtail, giant [11]; [17]
  Foxtail, Giant plant response rating: 10
Pigweed [12]; [16]
  Pigweed plant response rating: 90
Pigweed [12]; [17]
  Pigweed plant response rating: 40
wheat; [16]
  Wheat plant response rating: 10
wheat; [17]
  Wheat plant response rating: 0
corn; [16]
  Corn plant response rating: 30
corn; [17]
  Corn plant response rating: 10
blackgrass; [16]
  Blackgrass plant response rating: 50
blackgrass; [17]
  Blackgrass plant response rating: 10
galium; [16]
  Galium plant response rating: 70
galium; [17]
  Galium plant response rating: 30
rice
  Plant response rating, Rice: 0
sedge, umbrella
  Plant response rating, Sedge, Umbrella: 0
ducksalad
  Plant response rating, Ducksalad: 0
Barnyardgrass [13]
  Plant response rating, Barnyardgrass: 0

## CCCCNC(=O)c1cc(CC)n(Cc2cc(OC(F)F)nn2C)n1 [Compound 135]
Barnyardgrass [1]; [14]
  Barnyardgrass plant response rating: 0
Barnyardgrass [1]; [15]
  Barnyardgrass plant response rating: 0
Kochia [2]; [14]
  Kochia plant response rating: 70
Kochia [2]; [15]
  Kochia plant response rating: 100
Common ragweed [3]; [14]
  Common Ragweed plant response rating: 0
Common ragweed [3]; [15]
  Common Ragweed plant response rating: 0
Italian ryegrass [4]; [14]
  Italian Ryegrass plant response rating: 0
Italian ryegrass [4]; [15]
  Italian Ryegrass plant response rating: 0
foxtail, giant [5]; [14]
  Foxtail, Giant plant response rating: 0
foxtail, giant [5]; [15]
  Foxtail, Giant plant response rating: 50
Pigweed [6]; [14]
  Pigweed plant response rating: 0
Pigweed [6]; [15]
  Pigweed plant response rating: 50
Barnyardgrass [7]; [16]
  Barnyardgrass plant response rating: 10
Barnyardgrass [7]; [17]
  Barnyardgrass plant response rating: 10
Kochia [8]; [16]
  Kochia plant response rating: 100
Kochia [8]; [17]
  Kochia plant response rating: 70
Common ragweed [9]; [16]
  Common Ragweed plant response rating: 30
Common ragweed [9]; [17]
  Common Ragweed plant response rating: 10
Italian ryegrass [10]; [16]
  Italian Ryegrass plant response rating: 0
Italian ryegrass [10]; [17]
  Italian Ryegrass plant response rating: 0
foxtail, giant [11]; [16]
  Foxtail, Giant plant response rating: 10
foxtail, giant [11]; [17]
  Foxtail, Giant plant response rating: 0
Pigweed [12]; [16]
  Pigweed plant response rating: 40
Pigweed [12]; [17]
  Pigweed plant response rating: 10
wheat; [16]
  Wheat plant response rating: 0
wheat; [17]
  Wheat plant response rating: 0
corn; [16]
  Corn plant response rating: 20
corn; [17]
  Corn plant response rating: 10
blackgrass; [16]
  Blackgrass plant response rating: 20
blackgrass; [17]
  Blackgrass plant response rating: 0
galium; [16]
  Galium plant response rating: 50
galium; [17]
  Galium plant response rating: 20
rice
  Plant response rating, Rice: 0
sedge, umbrella
  Plant response rating, Sedge, Umbrella: 0
ducksalad
  Plant response rating, Ducksalad: 0
Barnyardgrass [13]
  Plant response rating, Barnyardgrass: 0

## CCc1cc(C(=O)NC(C)C)nn1Cc1cc(OC(F)F)nn1C [Compound 137]
Barnyardgrass [1]; [14]
  Barnyardgrass plant response rating: 10
Barnyardgrass [1]; [15]
  Barnyardgrass plant response rating: 70
Kochia [2]; [14]
  Kochia plant response rating: 30
Kochia [2]; [15]
  Kochia plant response rating: 100
Common ragweed [3]; [14]
  Common Ragweed plant response rating: 10
Common ragweed [3]; [15]
  Common Ragweed plant response rating: 100
Italian ryegrass [4]; [14]
  Italian Ryegrass plant response rating: 0
Italian ryegrass [4]; [15]
  Italian Ryegrass plant response rating: 40
foxtail, giant [5]; [14]
  Foxtail, Giant plant response rating: 20
foxtail, giant [5]; [15]
  Foxtail, Giant plant response rating: 80
Pigweed [6]; [14]
  Pigweed plant response rating: 60
Pigweed [6]; [15]
  Pigweed plant response rating: 100
Barnyardgrass [7]; [16]
  Barnyardgrass plant response rating: 60
Barnyardgrass [7]; [17]
  Barnyardgrass plant response rating: 0
Kochia [8]; [16]
  Kochia plant response rating: 90
Kochia [8]; [17]
  Kochia plant response rating: 50
Common ragweed [9]; [16]
  Common Ragweed plant response rating: 30
Common ragweed [9]; [17]
  Common Ragweed plant response rating: 10
Italian ryegrass [10]; [16]
  Italian Ryegrass plant response rating: 20
Italian ryegrass [10]; [17]
  Italian Ryegrass plant response rating: 0
foxtail, giant [11]; [16]
  Foxtail, Giant plant response rating: 70
foxtail, giant [11]; [17]
  Foxtail, Giant plant response rating: 10
Pigweed [12]; [16]
  Pigweed plant response rating: 80
Pigweed [12]; [17]
  Pigweed plant response rating: 50
wheat; [16]
  Wheat plant response rating: 10
wheat; [17]
  Wheat plant response rating: 0
corn; [16]
  Corn plant response rating: 30
corn; [17]
  Corn plant response rating: 10
blackgrass; [16]
  Blackgrass plant response rating: 50
blackgrass; [17]
  Blackgrass plant response rating: 10
galium; [16]
  Galium plant response rating: 80
galium; [17]
  Galium plant response rating: 50
rice
  Plant response rating, Rice: 0
sedge, umbrella
  Plant response rating, Sedge, Umbrella: 30
ducksalad
  Plant response rating, Ducksalad: 30
Barnyardgrass [13]
  Plant response rating, Barnyardgrass: 0
